Test results taken from ChEMBL document CHEMBL1201862, “PubChem BioAssay data set” (2004).
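Interpolation was linear, between the two tested concentrations surrounding the appropriate level; five concentrations were tested over 48 hours in 96-well plates. GI50: concentration for 50% inhibition of growth.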 Active and inactive are the calls of the source. Rule as the data show it: active = GI50 up to about 1.1 µM and inactive = higher.

Experiments:
Assay in all cases: growth of human tumour cells (NCI), 48 h
SF-268 = system: SF-268
UACC-62 = system: UACC-62
SK-OV-3 = system: SK-OV-3
HOP-92 = system: HOP-92
HT-29 = system: HT-29
Malme-3M = system: Malme-3M
KM12 = system: KM12
CCRF-CEM = system: CCRF-CEM
SK-MEL-28 = system: SK-MEL-28
LXFL 529 = system: LXFL 529
DMS-273 = system: DMS-273
RPMI-8226 = system: RPMI-8226
MOLT-4 = system: MOLT-4
SF-295 = system: SF-295
NCI-H460 = system: NCI-H460
OVCAR-4 = system: OVCAR-4
A498 = system: A498

| Compound | GI50 (SF-268) | GI50 (UACC-62) | GI50 (SK-OV-3) | GI50 (HOP-92) | GI50 (HT-29) | GI50 (Malme-3M) | GI50 (KM12) | GI50 (CCRF-CEM) | GI50 (SK-MEL-28) | GI50 (LXFL 529) | GI50 (DMS-273) | GI50 (RPMI-8226) | GI50 (MOLT-4) | GI50 (SF-295) | GI50 (NCI-H460) | GI50 (OVCAR-4) | GI50 (A498) |
| --- | --- | --- | --- | --- | --- | --- | --- | --- | --- | --- | --- | --- | --- | --- | --- | --- | --- |
| C/C(CC(=O)Nc1ccc([N+](=O)[O-])cc1)=N/N=C(N)N | > 100 µM (inactive) | > 100 µM (inactive) | > 100 µM (inactive) | > 100 µM (inactive) | > 100 µM (inactive) | > 100 µM (inactive) | > 100 µM (inactive) | > 100 µM (inactive) | > 100 µM (inactive) | 82 µM (inactive) | > 100 µM (inactive) | > 10 µM (inactive) | > 100 µM (inactive) | > 100 µM (inactive) | > 100 µM (inactive) | – | – |
| CC(C)(CN1C(=O)C(Cl)=C(Cl)C1=O)CN1C(=O)C(Cl)=C(Cl)C1=O | 19.1 µM (inactive) | 14.1 µM (inactive) | 33.3 µM (inactive) | 7.64 µM (inactive) | 13.2 µM (inactive) | 5.74 µM (inactive) | 24.2 µM (inactive) | 0.264 µM (active) | 7.48 µM (inactive) | 6.5 µM (inactive) | 6.92 µM (inactive) | 1.71 µM (inactive) | 0.966 µM (active) | 24.3 µM (inactive) | 35 µM (inactive) | 21.7 µM (inactive) | 28.6 µM (inactive) |
| CCN1C(=O)C(N=[N+]=[N-])(c2ccccc2)C(=O)c2ccccc21 (stereo unspecified) | 83.2 µM (inactive) | 62.8 µM (inactive) | > 100 µM (inactive) | 31.4 µM (inactive) | > 100 µM (inactive) | 67 µM (inactive) | > 100 µM (inactive) | 55.1 µM (inactive) | > 100 µM (inactive) | 38.9 µM (inactive) | > 100 µM (inactive) | 35.6 µM (inactive) | 43.1 µM (inactive) | 60.3 µM (inactive) | 94.8 µM (inactive) | 59 µM (inactive) | – |
| Cc1cc(Br)cc(C)c1NC(=O)C(=O)C(C(=O)c1ccc2ccccc2c1)C1OC(=O)c2ccccc21 (stereo unspecified) | 7.98 µM (inactive) | 12.9 µM (inactive) | 78.5 µM (inactive) | 1.58 µM (inactive) | 18.2 µM (inactive) | 14.7 µM (inactive) | 15.5 µM (inactive) | 3.94 µM (inactive) | 8.97 µM (inactive) | 7.93 µM (inactive) | 11 µM (inactive) | 5.94 µM (inactive) | 2.31 µM (inactive) | 4.59 µM (inactive) | 4.66 µM (inactive) | 5.14 µM (inactive) | 12 µM (inactive) |
| COc1ccc2c3c([nH]c2c1CC=C(C)C)C(=O)C=C(C)C3=O | 12.3 µM (inactive) | > 25 µM (inactive) | > 25 µM (inactive) | > 25 µM (inactive) | > 25 µM (inactive) | 16.1 µM (inactive) | > 25 µM (inactive) | 8.36 µM (inactive) | > 25 µM (inactive) | 15.8 µM (inactive) | > 25 µM (inactive) | > 25 µM (inactive) | 18.5 µM (inactive) | > 25 µM (inactive) | > 25 µM (inactive) | 20.4 µM (inactive) | – |
| NC12CC3CC(C1)CC(C(=O)O)(C3)C2 | > 100 µM (inactive) | > 100 µM (inactive) | > 100 µM (inactive) | > 100 µM (inactive) | > 100 µM (inactive) | – | > 100 µM (inactive) | > 100 µM (inactive) | > 100 µM (inactive) | > 100 µM (inactive) | > 100 µM (inactive) | > 100 µM (inactive) | > 100 µM (inactive) | > 100 µM (inactive) | > 100 µM (inactive) | > 100 µM (inactive) | > 100 µM (inactive) |
| O=C1CC(c2c[nH]c3ccccc23)C(=O)N1c1ccccc1 (stereo unspecified) | – | > 100 µM (inactive) | > 100 µM (inactive) | – | > 100 µM (inactive) | > 100 µM (inactive) | > 100 µM (inactive) | > 100 µM (inactive) | > 100 µM (inactive) | > 100 µM (inactive) | > 100 µM (inactive) | > 100 µM (inactive) | > 100 µM (inactive) | > 100 µM (inactive) | > 100 µM (inactive) | > 100 µM (inactive) | > 100 µM (inactive) |
| COc1ccc(CN2C(=O)C(Cc3cc(OC)c(OC)c(C)c3OC)N(C(=O)OC(C)C)C(=O)/C2=C/c2cc(OC)c(OC)c(C)c2OC)cc1 (stereo unspecified) | > 100 µM (inactive) | > 100 µM (inactive) | > 100 µM (inactive) | > 100 µM (inactive) | > 100 µM (inactive) | 64.9 µM (inactive) | > 100 µM (inactive) | 59.6 µM (inactive) | > 100 µM (inactive) | 12.7 µM (inactive) | 23.6 µM (inactive) | 16.4 µM (inactive) | 5.94 µM (inactive) | > 100 µM (inactive) | 18.4 µM (inactive) | > 100 µM (inactive) | > 100 µM (inactive) |
| O=C(c1nc2ccccc2nc1O)C(O)c1ccco1 (stereo unspecified) | > 100 µM (inactive) | 61.5 µM (inactive) | > 100 µM (inactive) | > 100 µM (inactive) | > 100 µM (inactive) | > 100 µM (inactive) | 76.4 µM (inactive) | > 100 µM (inactive) | > 100 µM (inactive) | 86.3 µM (inactive) | > 100 µM (inactive) | > 100 µM (inactive) | > 100 µM (inactive) | > 100 µM (inactive) | > 100 µM (inactive) | > 100 µM (inactive) | – |
| CC(=O)/C(=N\O)C(=O)NCCc1ccccc1 | > 100 µM (inactive) | > 100 µM (inactive) | > 100 µM (inactive) | > 100 µM (inactive) | 83.2 µM (inactive) | > 100 µM (inactive) | 58.3 µM (inactive) | 76.4 µM (inactive) | > 100 µM (inactive) | > 100 µM (inactive) | 55.1 µM (inactive) | 57.7 µM (inactive) | > 100 µM (inactive) | > 100 µM (inactive) | 41.6 µM (inactive) | > 100 µM (inactive) | > 100 µM (inactive) |
| COc1cc([C@@H]2c3cc4c(cc3[C@@H](OC(=O)c3ccc(N)cc3)C3COC(=O)[C@@H]32)OCO4)cc(OC)c1O (stereo partly specified) | 9.59 µM (inactive) | 4.91 µM (inactive) | 3.2 µM (inactive) | 3.77 µM (inactive) | 3.21 µM (inactive) | 12.3 µM (inactive) | 11.9 µM (inactive) | 6.18 µM (inactive) | 9.48 µM (inactive) | 14.8 µM (inactive) | 3.43 µM (inactive) | 7.8 µM (inactive) | 3.1 µM (inactive) | 4.25 µM (inactive) | 3.73 µM (inactive) | 45.4 µM (inactive) | 5.82 µM (inactive) |
| Cc1cc(C(C)C)cc(=O)c(O)c1 | > 100 µM (inactive) | > 100 µM (inactive) | > 100 µM (inactive) | > 100 µM (inactive) | > 100 µM (inactive) | > 100 µM (inactive) | > 100 µM (inactive) | > 100 µM (inactive) | > 100 µM (inactive) | > 100 µM (inactive) | > 100 µM (inactive) | > 100 µM (inactive) | > 100 µM (inactive) | > 100 µM (inactive) | > 100 µM (inactive) | > 100 µM (inactive) | > 100 µM (inactive) |
| CCSC(=O)C1(C)OC2CCCCC2C1=O (stereo unspecified) | > 100 µM (inactive) | > 100 µM (inactive) | > 100 µM (inactive) | – | – | > 100 µM (inactive) | > 100 µM (inactive) | > 100 µM (inactive) | > 100 µM (inactive) | > 100 µM (inactive) | > 100 µM (inactive) | > 100 µM (inactive) | > 100 µM (inactive) | – | > 100 µM (inactive) | > 100 µM (inactive) | > 100 µM (inactive) |
| O=C(NO)C(=O)Nc1cc(Cl)ccc1Cl | > 100 µM (inactive) | > 100 µM (inactive) | > 100 µM (inactive) | 69.5 µM (inactive) | > 100 µM (inactive) | > 100 µM (inactive) | > 100 µM (inactive) | 51.1 µM (inactive) | > 100 µM (inactive) | > 100 µM (inactive) | 42.7 µM (inactive) | > 100 µM (inactive) | 83.6 µM (inactive) | > 100 µM (inactive) | > 100 µM (inactive) | > 100 µM (inactive) | > 100 µM (inactive) |
| COc1cc2ccnc(-c3n[nH]c4cc(OC)c(OC)cc34)c2cc1OC | 62.4 µM (inactive) | > 100 µM (inactive) | > 100 µM (inactive) | > 100 µM (inactive) | > 100 µM (inactive) | > 100 µM (inactive) | > 100 µM (inactive) | > 100 µM (inactive) | > 100 µM (inactive) | > 100 µM (inactive) | > 100 µM (inactive) | > 100 µM (inactive) | > 100 µM (inactive) | > 100 µM (inactive) | > 100 µM (inactive) | > 100 µM (inactive) | > 100 µM (inactive) |
| N#CCCN(c1ccc(-c2nnc(NC(=O)CNNC(=O)CC(=O)Nc3ccccc3)s2)cc1)S(=O)(=O)c1ccccc1 | > 100 µM (inactive) | 50.8 µM (inactive) | > 100 µM (inactive) | 79.6 µM (inactive) | > 100 µM (inactive) | > 100 µM (inactive) | > 100 µM (inactive) | 90.8 µM (inactive) | > 100 µM (inactive) | 89.9 µM (inactive) | > 100 µM (inactive) | > 100 µM (inactive) | 45.3 µM (inactive) | > 100 µM (inactive) | > 100 µM (inactive) | 53.2 µM (inactive) | > 100 µM (inactive) |
